According to publication PMC6949113, “Preclinical evaluation of AT-527, a novel guanosine nucleotide prodrug with potent, pan-genotypic activity against hepatitis C virus” (PLoS ONE, 2020):
Marks after values point to notes of the source that are not given here.

Tests used:
[1] = Monkey PK study, liver and heart tissue levels; format: in vivo, cynomolgus monkey; conditions: for Mean Concentration at 4 hr Postdose, Liver / Liver/Heart Ratio / Mean Concentration at 4 hr Postdose, Heart: monkey; for Liver/Heart Ratio: 4 h; for Mean Concentration at 4 hr Postdose, Heart: footnoted values extrapolated below LLOQ
Text: (§1) Monkey PK study. Male non-naïve cynomolgus monkeys were obtained from Hainan Jingang Laboratory Animal Co., Ltd. (Hainan, China), group housed during the 5-day acclimation period or individually housed during the study in stainless steel mesh cages, provided ad libitum access to RO water, fed twice daily (~120 g Certified Monkey Diet daily; Beijing Vital Keao Feed Co., Ltd., Beijing, China) and given daily treats of fresh fruit. Additional environmental enrichment included classical music and cartoons. Three groups of 5 monkeys each were administered 30, 100 or 300 mg/kg AT-527 as a powder filled in empty porcine hard gelatin capsules (size 0). The monkeys were fasted overnight prior to dosing and fed 4 h after dosing. Three dosages were selected to provide assessments of dose proportionality, the top two representing potential doses for a repeated oral dose toxicity study in monkeys, and the lowest predicted to be more therapeutically relevant. A pill gun was used to place the capsule beyond the root of the animals’ tongues and their mouths were held loosely closed for approximately 30 sec to allow them to move the jaw and swallow the capsule. Immediately following capsule administration, 20 mL of water was given by mouth and then the mouth was opened to ensure the capsule was swallowed. Blood samples (~0.6 mL) were collected up to 72 h from three animals per dose group, and up to 4 h from the remaining two animals in each group, at the same time points described for rats. […] Blood samples were collected with a syringe from a peripheral blood vessel from restrained, non-sedated animals, immediately transferred to pre-chilled tubes containing ~1 mg K2EDTA•2H20 and 20 μL of 5 mM dichlorvos solution, mixed and placed on ice until plasma was prepared by centrifugation as described for rats. Immediately after centrifugation, plasma samples were extracted with 4 volumes ISS2, and the supernatants were clarified by centrifugation (12,000 rpm, 10 min, 4°C) and stored at ≤ -60°C until analyzed by LC-MS/MS as described below. After the 4-hr blood collection, two monkeys per dose group were anesthetized with intravenous injection of pentobarbital sodium (60 mg/kg) and then euthanized as described for rats. […] All analytes were quantitated by LC-MS/MS as described below.
For the analysis of AT-9010 in rat tissue homogenate supernatant, aliquots were diluted 1:2 with water and injected onto an Agilent Zorbax Extend C18 5 μm, 2.1 × 50 mm column and a Sciex API 4000 mass spectrometer (ESI positive ion, MRM mode). Mobile phases A (0.001% ammonia and 0.18 mM DBAA in water (1:1, v/v) and B (10 mM dimethylhexylamine (DMHA) and 3 mM AA in 50% ACN in water) were used to elute samples (60 μL) at 0.7 mL/min with 2% B for 0.8 min followed by a linear gradient to 30% B over 0.4 min, isocratic elution at 30% B for 0.4 min, a linear gradient to 95% B over 0.4 min, and ending with 95% B for 0.4 min. The analysis of AT-9010 in monkey tissue homogenate supernatant was the same except the sample injection volume was 20 μL. Attempts to measure tissue levels of other potentially formed TPs, including 2,6-diaminopurine-2’-F-2’-C-methylribosyl-5’-triphosphate and 2-amino-6-methylaminopurine-2’-F-2’-C-methylribosyl-5’-triphosphate (M2-TP), also used this method.
For the analysis of M2 and M3 in monkey tissue homogenate supernatant, aliquots were diluted 1:3 with water and injected onto an Acuity HSS T3 1.8 μm, 2.1 × 50 mm column and a Sciex API 6500 mass spectrometer (ESI positive ion, MRM mode). Mobile phases A (0.3% FA and 10 mM AA in water and B (0.3% FA and 10 mM AA in 95% ACN in water) were used to elute samples (1 μL) at 0.6 mL/min with 0% B for 0.4 min followed by linear gradients to 30% B over 0.5 min and to 95% B over 0.2 min, ending with isocratic elution at 95% B for 0.4 min.

[2] = Intracellular metabolism in human hepatocytes; format: in vitro ADME
Description: Hepatocytes. […] Cryopreserved male mouse (CD1), and fresh male Beagle dog and male cynomolgus monkey hepatocytes were obtained from BioreclamationIVT (Baltimore, MD) and were similarly plated with Matrigel in 6- or 24-well plates and maintained overnight in InVitroGRO™HI medium with Torpedo™ antibiotic (BioreclamationIVT). The protocol described above for measuring AT-511 and its metabolites in Huh-7 cells was repeated with the five different hepatocytes. Untreated cells were collected at 24 h, and the protein content of the cell lysates were determined using a bicinchoninic acid protein assay kit to assess the number of cells in each incubation. Separately, plated human hepatocytes were incubated for 6 h with 100 μM AT-511, followed by washout periods of 0, 2, 6, 18 and 30 h.
S3 Protocol. LC-MS/MS analysis of AT-511 and metabolites in cultured cells. The supernatant extracts of each hepatocyte and Huh-7 cell incubation were separately analyzed by four different LC-MS/MS methods for quantitation of phosphoramidates, nucleosides, monophosphates, and triphosphates (methods 1, 2, 3 and 4, respectively), using synthetic reference standards of actually and potentially present compounds and using structurally related analogs as internal standards. Briefly, a Luna PFP (2), 5 µm, 100 x 4.6 mm column and an AB Sciex API-6500 mass spectrometer (ESI positive ion, MRM mode) were used for methods 1-3 and an XBridge Oligonucleotide, BEH C18, 2.5 µm, 50 x 2.1 mm column and a Thermo QE Plus mass spectrometer (electrospray, negative ion mode) were used for method 4. For methods 1 and 2, mobile phases A (10 mM ammonium acetate in water) and B (acetonitrile:methanol, 1:1, v/v) were used to elute samples (5 µL) at 1 mL/min with 15% B for 1.5 min followed by a linear gradient to 75% B over 1 min (method 1) or with 54% B for 1.3 min followed by a linear gradient to 90% B over 1.2 min. Method 3 was the same except mobile phase A was 0.3% acetic acid in water, […] and samples were eluted with 3% B for 3 min followed by a linear gradient to 55% B over 1.2 min. For method 4, mobile phase A (3 mM ammonium formate with 10 mM dimethylhexylamine (DMHA) in water) and mobile phase B (3 mM ammonium formate with 10 mM DMHA in acetonitrile:water, 1:1, v/v) were used to elute samples at 0.4 mL/min with 0% B for 1.5 min followed by a linear gradient to 100% B over 2 min and ending with an isocratic elution for 0.5 min at 100% B.

[3] = Rat pharmacokinetic study, plasma; format: in vivo, Sprague-Dawley rat; conditions: for plasma concentration, individual rats: AT-527 500 mg/kg oral, male 1-3, female 7-9, BQL: <0.0017 AT-511, <0.0022 M1, <0.0032 AT-273, M4
[4] = Monkey PK study, plasma; format: in vivo, cynomolgus monkey; conditions: for plasma concentration: male cynomolgus monkeys; for AUC(0-t) / Cmax / MRT last / Tmax: male, cynomolgus, cynomolgus monkey, in vivo, po;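 as to plasma concentration: concentrations in nmol/mL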
Text: as §1
LC-MS/MS analysis of rat and monkey plasma and tissue homogenate supernatants. For the analysis of AT-511 in rat plasma, aliquots were extracted with 10 volumes ISS2. The supernatants were clarified by centrifugation (4000 rpm for 10 min at 4°C) and 3 μL samples were injected onto an Acuity BEH C18 1.7 μm, 2.1 × 50 mm column and a Sciex API 4000 mass spectrometer (ESI positive ion, MRM mode). Mobile phases A (0.025% formic acid (FA) and 1 mM ammonium acetate (AA) in 5% ACN in water) and B (0.025% FA and 1 mM AA in 95% ACN in water) were used to elute samples (3 μL) at 0.6 mL/min with 10% B for 0.3 min followed by linear gradients to 60% B over 0.6 min and to 90% B over 0.2 min, and ending with 90% B for 0.4 min.
PK data analysis. […] The linear/log trapezoidal rule was applied in obtaining the PK parameters.

[5] = both sexes, Sprague-Dawley, rat, in vivo, po, 500 mg/kg

With `C[C@@]1(F)[C@H](O)[C@@H](COP(=O)(O)O)O[C@H]1n1cnc2c(=O)[nH]c(N)nc21` [M3] the “Mean Concentration at 4 hr Postdose, Liver” value (from here on “Mean Concentration … Liver”) ([1]; AT-527 30 mg/kg oral) was 78.8 pmol/g, the “Liver/Heart Ratio” value ([1]; AT-527 30 mg/kg oral) was 11^a and the “Mean Concentration at 4 hr Postdose, Heart” value (“Mean Concentration … Heart” below) ([1]; AT-527 30 mg/kg oral) was 7.5^a pmol/g. For the same compound, the “Mean Concentration … Liver” value ([1]; AT-527 100 mg/kg oral) was 203 pmol/g, the “Liver/Heart Ratio” value ([1]; AT-527 100 mg/kg oral) was 26^a and the “Mean Concentration … Heart” value ([1]; AT-527 100 mg/kg oral) was 7.9^a pmol/g. For the same compound, the “Mean Concentration … Liver” value ([1]; AT-527 300 mg/kg oral) was 1180 pmol/g, the “Liver/Heart Ratio” value ([1]; AT-527 300 mg/kg oral) was 72 and the “Mean Concentration … Heart” value ([1]; AT-527 300 mg/kg oral) was 16.5 pmol/g.
For `CNc1nc(N)nc2c1ncn2[C@@H]1O[C@H](COP(=O)(O)OP(=O)(O)OP(=O)(O)O)[C@@H](O)[C@@]1(C)F` [5’-TP of M2, 2-amino-6-methylaminopurine-2’-F-2’-C-methylribosyl-5’-triphosphate], the intracellular detection [2] was “not detected” and the “concentration in liver and heart tissue” value ([1]; cynomolgus monkey, in vivo) was < 110 pmol/g.
In the case of `CNc1nc(N)nc2c1ncn2[C@@H]1O[C@H](CO[P@@](=O)(N[C@@H](C)C(=O)OC(C)C)Oc2ccccc2)[C@@H](O)[C@@]1(C)F` [AT-527], the “unusual or adverse clinical signs” value ([3]; rats, single oral 500 mg/kg) is reported as “no such signs noted” and the “unusual or adverse clinical signs” value ([4]; monkeys, single oral 30, 100 or 300 mg/kg) is reported as “no such signs noted”.
For `CNc1nc(N)nc2c1ncn2[C@@H]1O[C@H](CO[P@](=O)(O)N[C@@H](C)C(=O)O)[C@@H](O)[C@@]1(C)F` [M1], the “plasma concentration, individual rats” value ([3]; 48.0 h) was “BQL”, the “plasma concentration, individual rats” value ([3]; 72.0 h) was “BQL” and the AUC(0-t) [3, 5] was 77.9 ± 20.3 µM·h. The Cmax [3, 5] was 40.8 ± 9.7 µM, the MRT last [3, 5] was 2.54 ± 0.41 h and the Tmax [3, 5] was 0.58 ± 0.14 h. The “Liver/Heart Ratio” value ([1]; AT-527 30 mg/kg oral) was 3.7, the “Liver/Heart Ratio” value ([1]; AT-527 100 mg/kg oral) was 3.6 and the “Liver/Heart Ratio” value ([1]; AT-527 300 mg/kg oral) was 5.6. For the same compound, the plasma concentration ([4]; single oral AT-527 30 mg/kg, 0.500 h, monkey 1) was “BQL”, the plasma concentration ([4]; single oral AT-527 30 mg/kg, 48.0 h, monkey 1) was “BQL” and the plasma concentration ([4]; single oral AT-527 30 mg/kg, 48.0 h, monkey 2) was “BQL”. The plasma concentration ([4]; single oral AT-527 30 mg/kg, 72.0 h, monkey 1) was “BQL”, the plasma concentration ([4]; single oral AT-527 30 mg/kg, 72.0 h, monkey 2) was “BQL” and the plasma concentration ([4]; single oral AT-527 30 mg/kg, 72.0 h, monkey 3) was “BQL”. For the same compound, the plasma concentration ([4]; single oral AT-527 100 mg/kg, 48.0 h, monkey 1) was “BQL”, the plasma concentration ([4]; single oral AT-527 100 mg/kg, 48.0 h, monkey 2) was “BQL” and the plasma concentration ([4]; single oral AT-527 100 mg/kg, 72.0 h, monkey 1) was “BQL”. The plasma concentration ([4]; single oral AT-527 100 mg/kg, 72.0 h, monkey 2) was “BQL”, the plasma concentration ([4]; single oral AT-527 100 mg/kg, 72.0 h, monkey 3) was “BQL” and the plasma concentration ([4]; single oral AT-527 300 mg/kg, 0.500 h, monkey 1) was “BQL”. For the same compound, the plasma concentration ([4]; single oral AT-527 300 mg/kg, 48.0 h, monkey 2) was “BQL”, the plasma concentration ([4]; single oral AT-527 300 mg/kg, 48.0 h, monkey 3) was “BQL” and the plasma concentration ([4]; single oral AT-527 300 mg/kg, 72.0 h, monkey 1) was “BQL”. For the same compound, the plasma concentration ([4]; single oral AT-527 300 mg/kg, 72.0 h, monkey 2) was “BQL”, the plasma concentration ([4]; single oral AT-527 300 mg/kg, 72.0 h, monkey 3) was “BQL” and the AUC(0-t) ([4]; 30 mg/kg) was 5.44 ± 2.76 µM·h. It also gave a Cmax ([4]; 30 mg/kg) of 0.94 ± 0.61 µM, an MRT last ([4]; 30 mg/kg) of 7.06 ± 1.07 h and a Tmax ([4]; 30 mg/kg) of 4.67 ± 2.31 h. For the same compound, the AUC(0-t) ([4]; 100 mg/kg) was 25.5 ± 10.1 µM·h, the Cmax ([4]; 100 mg/kg) was 4.24 ± 2.84 µM and the MRT last ([4]; 100 mg/kg) was 7.22 ± 0.48 h. The AUC(0-t) ([4]; 300 mg/kg) was 35.6 ± 26.4 µM·h, the Cmax ([4]; 300 mg/kg) was 4.44 ± 4.74 µM and the MRT last ([4]; 300 mg/kg) was 11.4 ± 3.6 h. The Tmax ([4]; 300 mg/kg) was 4.67 ± 1.16 h.
In the case of `CNc1nc(N)nc2c1ncn2[C@@H]1O[C@H](COP(=O)(O)O)[C@@H](O)[C@@]1(C)F` [M2], the “Mean Concentration … Liver” value ([1]; AT-527 30 mg/kg oral) is reported as 103 pmol/g, the “Liver/Heart Ratio” value ([1]; AT-527 30 mg/kg oral) is reported as 19^a and the “Mean Concentration … Heart” value ([1]; AT-527 30 mg/kg oral) is reported as 5.4^a pmol/g. For the same compound, the “Mean Concentration … Liver” value ([1]; AT-527 100 mg/kg oral) was 479 pmol/g, the “Liver/Heart Ratio” value ([1]; AT-527 100 mg/kg oral) was 48^a and the “Mean Concentration … Heart” value ([1]; AT-527 100 mg/kg oral) was 9.9^a pmol/g. For the same compound, the “Mean Concentration … Liver” value ([1]; AT-527 300 mg/kg oral) was 87.9 pmol/g, the “Liver/Heart Ratio” value ([1]; AT-527 300 mg/kg oral) was 13^a and the “Mean Concentration … Heart” value ([1]; AT-527 300 mg/kg oral) was 6.6^a pmol/g.
